Data: ChEMBL document CHEMBL4334495, “Design and Biological Evaluation of m-Xylene Thioether-Stapled Short Helical Peptides Targeting the HIV-1 gp41 Hexameric Coiled-Coil Fusion Complex” (J Med Chem, 2019)
pEC50: −log10 of the molar value. Activity calls are given as the source filed them. The calls are words filed in the database; no cut-off is given here. Starred links: 1 amine or outer side, 2 acyl side, 3 side chain; linkers in the order of their positions; H or OH if unused. Positions of bridges follow the written chain, without caps; N, C: chain ends. Non-standard residues stand in square brackets, D forms with d. Residues, ends and D or L forms follow the SMILES beside them. ξ: configuration not given here. mXylylene = c1cc(C[*:1])cc(C[*:2])c1; ξhCys = NC(CCS)C(=O)O

Tests used:
[1] = system: Human immunodeficiency virus 1; assay: Antiviral activity against T2635 resistant HIV1 LAI harboring Q66R mutant infected in human MT2 cells or CEMx174 5.25 M7 cells assessed as reduction in p24 Gag protein production at 50:1 ratio of compound to HP23 measured at 4 days post infection by ELISA; assay type: functional, organism-based, M:B_Lai
[2] = system: Human immunodeficiency virus 1; assay: Synergistic antiviral activity against HIV1 NL4-3 infected in human MT2 cells or CEMx174 5.25 M7 cells assessed as reduction in p24 Gag protein production by measuring combination index at 10:1 compound to HP23 ratio measured at 4 days post-infection by ELISA; assay type: functional
[3] = system: Human immunodeficiency virus 1; assay: Ratio of EC50 for antiviral activity against R5 tropic HIV-1 subtype-B Bal infected in human MT2 cells or CEMx174 5.25 M7 cells in absence of HP23 to EC50 for antiviral activity against R5 tropic HIV-1 subtype-B Bal infected in human MT2 cells or CEMx174 5.25 M7 cells at 6:1 compound to HP23 ratio; assay type: functional, HIV-1 group M
[4] = system: Human immunodeficiency virus 1; assay: Antiviral activity against R5 tropic HIV-1 subtype-B Bal infected in human MT2 cells or CEMx174 5.25 M7 cells assessed as reduction in p24 Gag protein production measured at 4 days post-infection by ELISA; assay type: functional, cell-based, HIV-1 group M; details: Human immunodeficiency virus 1, Bal, 96 h
[5] = molecular target: Envelope glycoprotein gp160 (Human immunodeficiency virus 1) (UniProt Q6QLK5); assay: Synergistic inhibition of HIV1 gp41-induced cell-cell fusion between viral envelope expressing human HL2/3 cells to CD4/CCR5 receptor expressing TZM-bl cells assessed as combination index at 4:1 compound to HP23 ratio incubated for 6 hrs by luciferase reporter gene assay
[6] = system: Human immunodeficiency virus 1; assay: (§1) Ratio of EC50 for antiviral activity against T20 resistant HIV1 NL4-3 harboring with V38E/N42T mutant infected in human MT2 cells or CEMx174 5.25 M7 cells in absence of HP23 to EC50 for Antiviral activity against T20 resistant HIV1 NL4-3 harboring with V38E/N42T mutant infected in human MT2 cells or CEMx174 5.25 M7 cells at 150:1 compound to HP23 ratio; assay type: functional
[7] = system: Human immunodeficiency virus 1; assay: Antiviral activity against T2635 resistant HIV1 LAI harboring Q66R mutant infected in human MT2 cells or CEMx174 5.25 M7 cells assessed as reduction in p24 Gag protein production measured at 4 days post-infection by ELISA; assay type: functional, organism-based, M:B_Lai
[8] = system: Human immunodeficiency virus 1; assay: Antiviral activity against HIV1 NL4-3 infected in human MT2 cells or CEMx174 5.25 M7 cells assessed as reduction in p24 Gag protein production measured at 4 days post infection by ELISA; assay type: functional, organism-based; details: Human immunodeficiency virus 1, NL4-3, 96 h
[9] = molecular target: Envelope glycoprotein gp160 (Human immunodeficiency virus 1) (UniProt Q6QLK5); assay: Ratio of EC50 for inhibition of HIV1 gp41-induced cell-cell fusion between viral envelope expressing human HL2/3 cells to CD4/CCR5 receptor expressing TZM-bl cells in absence of HP23 to EC50 for inhibition of HIV1 gp41-induced cell-cell fusion between viral envelope expressing human HL2/3 cells to CD4/CCR5 receptor expressing TZM-bl cells at 2:1 compound to HP23 ratio
[10] = molecular target: Envelope glycoprotein gp160 (Human immunodeficiency virus 1) (UniProt Q6QLK5); assay: Synergistic inhibition of HIV1 gp41-induced cell-cell fusion between viral envelope expressing human HL2/3 cells to CD4/CCR5 receptor expressing TZM-bl cells assessed as combination index at 1:1 compound to HP23 ratio incubated for 6 hrs by luciferase reporter gene assay
[11] = system: Human immunodeficiency virus 1; assay: (§2) Antiviral activity against T20 resistant HIV1 NL4-3 harboring with V38E/N42T mutant infected in human MT2 cells or CEMx174 5.25 M7 cells assessed as reduction in p24 Gag protein production at 300:1 compound to HP23 ratio measured at 4 days post-infection by ELISA; assay type: functional, organism-based
[12] = system: Human immunodeficiency virus 1; assay: as §2, with “Synergistic antiviral” for “Antiviral”, “production by measuring combination index” for “production”, “150:1” for “300:1”; assay type: functional
[13] = system: Human immunodeficiency virus 1; assay: as §1, with “V38E/N42S” for “V38E/N42T”, “antiviral” for “Antiviral”, “3500:1” for “150:1”; assay type: functional
[14] = system: Human immunodeficiency virus 1; assay: Antiviral activity against T2635 resistant HIV1 LAI harboring Q66R mutant infected in human MT2 cells or CEMx174 5.25 M7 cells assessed as reduction in p24 Gag protein production at 12.5:1 ratio of compound to HP23 measured at 4 days post infection by ELISA; assay type: functional, organism-based, M:B_Lai
[15] = system: Human immunodeficiency virus 1; assay: Ratio of EC50 for antiviral activity against HIV1 NL4-3 infected in human MT2 cells or CEMx174 5.25 M7 cells in absence of HP23 to EC50 for antiviral activity against HIV1 NL4-3 infected in human MT2 cells or CEMx174 5.25 M7 cells at 5:1 compound to HP23 ratio; assay type: functional
[16] = molecular target: Envelope glycoprotein gp160 (Human immunodeficiency virus 1) (UniProt Q6QLK5); assay: Binding affinity to HIV1 GP41 using GP41 NHR derived N36 peptide at 500 uM incubated for 30 mins by size exclusion HPLC analysis
[17] = system: Human immunodeficiency virus 1; assay: Antiviral activity against X4 tropic HIV-1 subtype-B 3B infected in human MT2 cells or CEMx174 5.25 M7 cells assessed as reduction in p24 Gag protein production measured at 4 days post-infection by ELISA; assay type: functional, cell-based, HIV-1 group M; details: Human immunodeficiency virus 1, 3B, 96 h
[18] = system: Human immunodeficiency virus 1; assay: Antiviral activity against T20 resistant HIV1 NL4-3 harboring with V38E/N42S mutant infected in human MT2 cells or CEMx174 5.25 M7 cells assessed as reduction in p24 Gag protein production measured at 4 days post-infection by ELISA; assay type: functional, organism-based
[19] = system: Human immunodeficiency virus 1; assay: Synergistic antiviral activity against HIV1 NL4-3 infected in human MT2 cells or CEMx174 5.25 M7 cells assessed as reduction in p24 Gag protein production by measuring combination index at 5:1 compound to HP23 ratio measured at 4 days post-infection by ELISA; assay type: functional
[20] = system: Human immunodeficiency virus 1; assay: Antiviral activity against T20 resistant HIV1 NL4-3 harboring with V38E/N42T mutant infected in human MT2 cells or CEMx174 5.25 M7 cells assessed as reduction in p24 Gag protein production measured at 4 days post-infection by ELISA; assay type: functional, organism-based
[21] = system: Human immunodeficiency virus 1; assay: Antiviral activity against T2635 resistant HIV1 LAI harboring Q66R mutant infected in human MT2 cells or CEMx174 5.25 M7 cells assessed as reduction in p24 Gag protein production at 25:1 ratio of hCS6ERE to compound measured at 4 days post infection by ELISA; assay type: functional, organism-based, M:B_Lai
[22] = system: Human immunodeficiency virus 1; assay: Antiviral activity against T2635 resistant HIV1 LAI harboring Q66R mutant infected in human MT2 cells or CEMx174 5.25 M7 cells assessed as reduction in p24 Gag protein production at 50:1 ratio of hCS6ERE to compound measured at 4 days post infection by ELISA; assay type: functional, organism-based, M:B_Lai
[23] = system: Human immunodeficiency virus 1; assay: Antiviral activity against HIV1 NL4-3 infected in human MT2 cells or CEMx174 5.25 M7 cells assessed as reduction in p24 Gag protein production at 20:1 hCS6ERE to compound ratio measured at 4 days post-infection by ELISA; assay type: functional, organism-based; details: Human immunodeficiency virus 1, NL4-3, 96 h
[24] = system: Human immunodeficiency virus 1; assay: as §1, with “hCS6ERE” for “HP23”, “600:1 hCS6ERE to” for “150:1”, “compound” for “compound to HP23”; assay type: functional

Sequence of Envelope glycoprotein gp160 (Human immunodeficiency virus 1) (Q6QLK5 1-814): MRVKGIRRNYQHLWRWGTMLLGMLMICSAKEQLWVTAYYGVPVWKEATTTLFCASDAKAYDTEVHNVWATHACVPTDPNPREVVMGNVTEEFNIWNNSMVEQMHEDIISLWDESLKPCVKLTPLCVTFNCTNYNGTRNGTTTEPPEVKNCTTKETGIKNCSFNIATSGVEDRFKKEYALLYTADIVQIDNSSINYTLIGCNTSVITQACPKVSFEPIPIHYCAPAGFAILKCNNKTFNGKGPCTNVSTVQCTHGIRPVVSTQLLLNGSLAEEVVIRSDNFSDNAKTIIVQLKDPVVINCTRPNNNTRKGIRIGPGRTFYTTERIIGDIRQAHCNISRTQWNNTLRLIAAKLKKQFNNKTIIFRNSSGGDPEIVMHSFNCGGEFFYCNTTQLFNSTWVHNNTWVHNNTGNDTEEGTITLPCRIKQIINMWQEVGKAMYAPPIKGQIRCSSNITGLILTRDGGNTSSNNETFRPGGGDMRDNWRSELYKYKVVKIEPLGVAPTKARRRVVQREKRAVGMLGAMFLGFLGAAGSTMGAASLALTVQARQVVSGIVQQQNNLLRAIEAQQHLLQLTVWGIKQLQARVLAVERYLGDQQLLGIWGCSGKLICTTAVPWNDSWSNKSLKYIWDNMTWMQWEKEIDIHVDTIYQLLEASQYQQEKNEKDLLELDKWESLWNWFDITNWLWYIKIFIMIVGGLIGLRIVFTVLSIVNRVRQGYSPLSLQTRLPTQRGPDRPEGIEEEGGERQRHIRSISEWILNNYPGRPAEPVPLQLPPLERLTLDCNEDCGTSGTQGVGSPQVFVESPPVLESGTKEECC

CC[C@H](C)[C@H](NC(C)=O)C(=O)N[C@@H](CCC(=O)O)C(=O)N[C@@H](CCC(=O)O)C(=O)N[C@@H](CC(C)C)C(=O)N[C@H](C(=O)NC1CCSCc2cccc(c2)CSCCC(C(=O)N[C@@H](CCC(N)=O)C(=O)N[C@@H](CCC(N)=O)C(=O)N[C@@H](CCCNC(=N)N)C(=O)N[C@@H](CCCCN)C(=O)N[C@@H](CC(N)=O)C(=O)N[C@@H](CCC(=O)O)C(=O)N[C@@H](CCC(=O)O)C(=O)N[C@@H](C)C(=O)N[C@@H](CC(C)C)C(=O)N[C@@H](CCCNC(=N)N)C(=O)N[C@@H](CCC(=O)O)C(=O)N[C@@H](CC(C)C)C(N)=O)NC(=O)[C@H](CCC(N)=O)NC(=O)[C@H](C)NC(=O)[C@H](C)NC1=O)[C@@H](C)CC (stereo not given in full) (Ac-IEELI[ξhCys]AAQ[ξhCys]QQRKNEEALREL-NH2; linker 6-10 via mXylylene)
pEC50 [1]: 7.58 | CI [2]: 0.7 | Ratio EC50 [3]: 3.8 | pEC50 [4]: 7.81 to 7.82 | CI [5]: 0.6 | Ratio EC50 [6]: 3.1 | pEC50 [7]: 7.06 | pEC50 [8]: 7.66 | Ratio EC50 [9]: 2 | CI [10]: 0.9 | pEC50 [11]: 6.36 | CI [12]: 0.9 | Ratio EC50 [13]: 3.4 | pEC50 [14]: 7.64 | Ratio EC50 [15]: 5 | Activity [16]: Active | pEC50 [17]: 7.57 to 7.96 | pEC50 [18]: 5.16 | CI [19]: 0.4 | pEC50 [20]: 6.00

H-EMTWEEWEKKIEEYTKKIEEILK-OH
pEC50 [4]: 8.59 | pEC50 [7]: 8.32 | pEC50 [8]: 8.47 | pEC50 [21]: 8.82 | pEC50 [17]: 8.60 | pEC50 [22]: 9.30 | pEC50 [18]: 8.85 | pEC50 [23]: 9.15 | Ratio EC50 [24]: 5.1 | pEC50 [20]: 8.39
